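A five-concentration, 48-hour dose response in 96-well plates underlies each endpoint, interpolated linearly between surrounding concentrations. GI50 is the concentration that inhibits growth by half. Definition used: TGI = concentration required for complete inhibition of growth.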
Tests used:
Assay in all cases: NCI anticancer screen, dose series, 48 h
[1] = system: 786-0 renal
[2] = system: A498 renal
[3] = system: A549 NSCLC
[4] = system: ACHN renal
[5] = system: BT-549 breast
[6] = system: CAKI-1 renal
[7] = system: CCRF-CEM leukemia
[8] = system: COLO 205 colon
[9] = system: DU-145 prostate
[10] = system: EKVX NSCLC
[11] = system: HCC-2998 colon
[12] = system: HCT-116 colon
[13] = system: HCT-15 colon
[14] = system: HL-60(TB) leukemia
[15] = system: HOP-62 NSCLC
[16] = system: HOP-92 NSCLC
[17] = system: HS 578T breast
[18] = system: HT29 colon
[19] = system: IGROV1 ovarian
[20] = system: K-562 leukemia
[21] = system: KM12 colon
[22] = system: LOX IMVI melanoma
[23] = system: M14 melanoma
[24] = system: MALME-3M melanoma
[25] = system: MCF7 breast
[26] = system: MDA-MB-231 breast
[27] = system: MOLT-4 leukemia
[28] = system: NCI-H226 lung
[29] = system: NCI-H23 lung

Cn1cc(-c2cc(-c3cn(C)c4ccccc34)[nH]n2)c2ccccc21
GI50 [1]: 14.1 µM | TGI [1]: 41.2 µM | GI50 [2]: 19.6 µM | TGI [2]: 90.3 µM | GI50 [3]: 16.3 µM | TGI [3]: > 100 µM | GI50 [4]: 7.68 µM | TGI [4]: > 100 µM | GI50 [5]: 15.9 µM | TGI [5]: 61.7 µM | GI50 [6]: > 100 µM | TGI [6]: > 100 µM | GI50 [7]: 14.4 µM | TGI [7]: 29.3 µM | GI50 [8]: 7.98 µM | TGI [8]: > 100 µM | GI50 [9]: 15.6 µM | TGI [9]: > 100 µM | GI50 [10]: 27.2 µM | TGI [10]: > 100 µM | GI50 [11]: 4.74 µM | TGI [11]: > 100 µM | GI50 [12]: 19 µM | TGI [12]: > 100 µM | GI50 [13]: 8.68 µM | TGI [13]: > 100 µM | GI50 [14]: 15.4 µM | TGI [14]: 62.8 µM | GI50 [15]: 17.3 µM | TGI [15]: 60 µM | GI50 [16]: 2.06 µM | TGI [16]: 9.57 µM | GI50 [17]: 18.5 µM | TGI [17]: > 100 µM | GI50 [18]: 5.35 µM | TGI [18]: > 100 µM | GI50 [19]: 8.9 µM | TGI [19]: 74.1 µM | GI50 [20]: 42.1 µM | TGI [20]: > 100 µM | GI50 [21]: 4.58 µM | TGI [21]: > 100 µM | GI50 [22]: 5.38 µM | TGI [22]: > 100 µM | GI50 [23]: > 100 µM | TGI [23]: > 100 µM | GI50 [24]: 93.1 µM | TGI [24]: > 100 µM | GI50 [25]: 3.95 µM | TGI [25]: > 100 µM | GI50 [26]: 8.06 µM | TGI [26]: > 100 µM | GI50 [27]: 4.75 µM | TGI [27]: 20.8 µM | GI50 [28]: 19.8 µM | TGI [28]: 99 µM | GI50 [29]: 22 µM
